Where two headings read alike, the source gives them in different places.
Tests used:
[1] = target: T1, human kappa opioid receptors (Homo sapiens, UniProt P41145); test: [35S]GTPγS binding, membranes from U2OS cells; format: biochemical; conditions: for Emax: read-out: GTPγS (% efficacy)
T1 construct: expressed in transfected cells; host or cells: U2OS

[2] = target: kappa opioid receptor (hOPRK1) β-arrestin (Homo sapiens, UniProt P41145); test: β-arrestin PathHunter assay (U2OS hOPRK1); conditions: for Arrestin efficacy, %: Table E
Sequence of kappa opioid receptor (hOPRK1) β-arrestin (P41145 whole entry): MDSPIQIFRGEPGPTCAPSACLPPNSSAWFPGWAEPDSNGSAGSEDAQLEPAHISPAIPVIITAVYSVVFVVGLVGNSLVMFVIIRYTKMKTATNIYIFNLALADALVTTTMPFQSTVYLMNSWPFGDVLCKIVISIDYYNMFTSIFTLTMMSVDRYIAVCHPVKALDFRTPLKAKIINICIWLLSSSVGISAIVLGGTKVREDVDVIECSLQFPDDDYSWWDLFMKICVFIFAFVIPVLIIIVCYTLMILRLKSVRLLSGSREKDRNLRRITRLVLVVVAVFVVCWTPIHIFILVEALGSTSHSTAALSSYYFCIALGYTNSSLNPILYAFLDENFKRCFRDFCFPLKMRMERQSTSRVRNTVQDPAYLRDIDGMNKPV

[3] = test system: male mice; test: Rotarod incoordination (sedation) in mice; format: in vivo
Excerpt: In the case of rotarod incoordination, kappa agonist effects in this assay reflect kappa-opioid receptor arrestin mediated signaling. This assay is thought to be a sensitive measure of the sedative properties of kappa opioid receptor agonists. Generally, a compound which has reduced efficacy in the coupling of arrestin with the kappa opioid receptor is thought to have a lowered potential for the sedative side effects of kappa opioid receptor ligands Rotarod assays in vivo are employed to confirm this possibility.
Rotarod experiments are conducted with mice using a dedicated rodent rotarod apparatus, with up to five animals tested concurrently (IITC Life Science, Woodland Hills, Calif, USA). Rotarod rotation rate begins at 3 rotations per minute, and ramps to 30 rotations per minute over the course of 300 s, at which time the assay is terminated and animals removed to their home cage. Animals are acclimated to the rotarod on at least two occasions prior to the day of the test. On the day of the test, baseline times for each animal to fall off the rotarod are recorded. Mice are then injected intraperitoneally with vehicle or compound, and rotarod measurements conducted, beginning 0-2 minutes after injection, and then subsequently at select time points thereafter. Animals which fail to remain on the rotarod for at least 150 seconds during baseline testing are removed from the analysis.
(The closure of laboratories during the covid-19 pandemic delayed the carrying out of conditioned place aversion assays and modulation of cocaine self-administration, so that results were not available by the filing date of this application.)

[4] = test system: male mice; test: Serum prolactin release in mice; format: in vivo; conditions: dose-response experiment

T1 sequence (P41145 whole entry): as above

Structure (SMILES)	EC50 ([1]; GTPγS EC50 (nM), Table D) [nM]	EC50 ([1]; GTPγS potency (nM), Table E) [nM]	GTPγS efficacy, % ([1]; Table E) [%]	Emax [1] [%]	EC50 [2] [nM]	Arrestin efficacy, % [2] [%]	further results
CC(C)(O)C(=O)N1CCN(C(=O)Cc2ccc(Cl)c(Cl)c2)[C@H]2[C@H](N3CCCC3)COC[C@@H]21 [Example 5A96B]	64	71.4	123.5	113	24800	60.7	
CC(C)(O)CN1CCN(C(=O)Cc2ccc(Cl)c(Cl)c2)[C@H]2[C@H]1COC[C@@H]2N1CCCC1 (single isomer, unassigned) [Example 5A90A]	22	34.7	91.0	101	43200	78.1	
CC(C)(O)C(=O)N1CCN(C(=O)Cc2ccc(Cl)c(Cl)c2)[C@H]2[C@H]1COC[C@@H]2N1CCCC1 [Example 5A96A]	17	32.8	77.0	64	3760	53.0	sedative effect in rotarod ([3]; up to 90 mg/kg intraperitoneally): no statistically significant sedative effect
CC(C)(O)CN1CCN(C(=O)Cc2ccc(Cl)c(Cl)c2)[C@H]2[C@H](N3CCCC3)COC[C@@H]21 (single isomer, unassigned) [Example 5A90B]	5.4	8.9	69.3	68	5250	46.5	stimulation of prolactin levels ([4]; 30 mg/kg (p<0.05)): statistically significant stimulation; stimulation of prolactin levels ([4]; 90 mg/kg (p<0.005)): statistically significant stimulation; sedative effect in rotarod ([3]; 10 mg/kg intraperitoneally): not; sedative effect in rotarod ([3]; 30 mg/kg intraperitoneally): not; sedative effect in rotarod ([3]; 90 mg/kg intraperitoneally): substantial sedative effect
O=C(Cc1ccc(Cl)c(Cl)c1)N1CCN(Cc2ccon2)[C@H]2COC[C@@H](N3CCCC3)[C@@H]21 [Example 5A86B]	23			79			
O=C(Cc1ccc(Cl)c(Cl)c1)N1CCN(CC2CCOC2)[C@@H]2COC[C@H](N3CCCC3)[C@H]21 (stereo partly drawn) [Example 5A93]	46			80			
O=C(Cc1ccc(Cl)c(Cl)c1)N1CCN(CC2CCOCC2)[C@@H]2COC[C@H](N3CCCC3)[C@H]21 (racemic) [rac-5A84]				84			EC50 [1]: 136 nM
O=C(Cc1ccc(Cl)c(Cl)c1)N1CCN(C(=O)c2cc[nH]n2)[C@@H]2COC[C@H](N3CCCC3)[C@H]21 (racemic) [rac-5A122]	31			79			
O=C(CN1CCN(C(=O)Cc2ccc(Cl)c(Cl)c2)[C@H]2[C@H]1COC[C@@H]2N1CCCC1)N1CCCC1 (racemic) [rac-5A113]	70			92			
O=C(Cc1ccc(Cl)c(Cl)c1)N1CCN(CC2COC2)[C@@H]2COC[C@H](N3CCCC3)[C@H]21 (single isomer, unassigned) [Example 5A83A]	199			141			

From US20220324876A1, “4-SUBSTITUTED PYRANO[3,4,b]PYRAZINE KAPPA AGONISTS FOR TREATING DRUG DEPENDENCY” (The Rockefeller University, priority 2019, published 2022)
